One data set concerns the target T1, MAO-A (Homo sapiens, UniProt P21397).
T1 sequence (P21397 1-527): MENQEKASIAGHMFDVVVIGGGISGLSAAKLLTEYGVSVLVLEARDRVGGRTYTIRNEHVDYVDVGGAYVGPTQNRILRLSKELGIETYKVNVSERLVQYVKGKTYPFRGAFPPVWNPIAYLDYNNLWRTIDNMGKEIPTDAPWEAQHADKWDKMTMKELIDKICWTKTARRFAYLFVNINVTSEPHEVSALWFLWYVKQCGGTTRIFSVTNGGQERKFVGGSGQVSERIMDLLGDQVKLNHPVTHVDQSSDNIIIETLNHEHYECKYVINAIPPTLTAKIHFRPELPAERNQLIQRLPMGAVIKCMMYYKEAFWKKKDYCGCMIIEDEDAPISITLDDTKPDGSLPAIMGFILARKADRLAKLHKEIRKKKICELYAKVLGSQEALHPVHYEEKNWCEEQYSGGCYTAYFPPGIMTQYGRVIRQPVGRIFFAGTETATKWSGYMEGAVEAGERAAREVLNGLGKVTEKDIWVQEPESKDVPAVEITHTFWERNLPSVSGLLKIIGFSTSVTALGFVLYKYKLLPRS
Description: MAO-A inhibition, kynuramine method. The format is biochemical. Conditions: at the concentration of 10.0 μM; n.a. = no active, percent inhibition <5.0%; read-out: %Inhibition MAO-A.

Data set [1] in a line: Stoichiometry of 3h-Fe^2+ complex by molar ratio method. To be noted: absorbance at 385 nm; FeSO4 0–187.5 µM; 3h 75 µM in methanol. The format is physicochemical. The procedure:
Because Fe^2+ played a crucial role in the pathogenesis of PD, the stoichiometry of 3h-Fe^2+ complex was further measured by using molar ratio method. 3h was incubated with various concentrations of FeSO4 (0–187.5 µM), and the electronic spectra were detected.
As the Fe^2+ played important role in the pathogenetic process of PD, the stoichiometry of 3h-Fe^2+ complex was detected by using molar ratio method. In detail, test compound solution (1.0 ml, 75 µM in methanol) was incubated with Fe^2+ solution (1.0 ml, 7.5–187.5 µM in methanol) at 37 °C for 30 min. Then, the mixture was removed from the vial to a quartz cell, and the absorbance of mixture at 200–800 nm was measured by using UV spectrophotometer (Shimadzu UV-1900i).

Data set [2] deals with NO release in LPS-activated BV-2 microglia cells. Description: LPS-induced NO release in BV-2 cells (Griess method). The format is cell-based. To be noted: Mus musculus, LPS 1.0 µg/mL, read-out: inhibitory rate of LPS-induced NO release. The protocol:
Then, Griess method was performed to measure the inhibitory effect of 3h on LPS-induced NO release in BV-2 cells. […] It reflected that LPS could induce the activation of BV-2 cells and induce neuroinflammation.
ELISA and Griess reaction methods were performed to detect the inhibitory effect of 3h on the release of TNF-α and NO in LPS-stimulated BV-2 cells[46]^,[47]. BV-2 cells in the logarithmic phase were seeded into 96-well cell culture plate, and these cells were incubated at 37 °C for 24 h at the atmosphere of 5% CO2. After incubation, the culture solution was replaced by fresh one (90 µL without serum), and test compound solution (10 µL) was added. After addition, the plate was incubated for 30 min, then LPS (10 µL, 1.0 µg/ml in PBS) was added to each well, and the mixture would be incubated for another 24 h at 37 °C. After the final incubation, the supernatants were taken out to measure the level of TNF-α and NO according to the procedures depicted on the kits (kits were purchased from Nanjing Jiancheng Bioengineering Institute).
On the technique in general: Nitrite, measured by Griess reagent, commonly stands in for NO production.

SMILES strings stand for the structures.

The values that follow come from publication PMC9897792, “Discovery of novel 2-(4-(benzyloxy)-5-(hydroxyl) phenyl) benzothiazole derivatives as multifunctional MAO-B inhibitors for the treatment of Parkinson’s disease” (Journal of Enzyme Inhibition and Medicinal Chemistry, 2023).

`Oc1cc(OCc2ccc(F)cc2)ccc1-c1nc2ccccc2s1` [3h, 2-(Benzo[d]thiazol-2-yl)-5-((4-fluorobenzyl)oxy)phenol]: the inhibition at 10 µM on MAO-A came out at 39.7 ± 0.54%; in data set [2] (10.0 µM) it was 63.7%. Further, the “molar ratio at intersection of straight lines (molar ratio method)” value in data set [1] is reported as 1.65. In data set [2] (0.5 µM), the inhibition at 0.5 µM is 15.8%. In data set [2] (2.5 µM), the inhibition at […] amounted to 35.8%.
